# Assay results as given in patent EP1101496A1, “THERAPEUTIC AGENTS FOR ALLERGIC DISEASES” (FUJI YAKUHIN KOGYO KABUSHIKI KAISHA, priority 1998, dated 2000).
# Experiments:
# [1] = tested on: IgE-mediated auricle edema; experiment: Auricle edema in experimental atopic dermatitis model (anti-DNP IgE sensitization, DNFB elicitation); assay type: in vivo, Balb/c mice; details: for % Inhibition vLPR: 7 or 8 days post-elicitation; for % Inhibition vLPR / % Inhibition IPR / % Inhibition LPR: painted on auricles 60 µg/ear/dose in ethanol twice a day; for % Inhibition IPR: 1 hour post-elicitation, 1 hour pre-elicitation to 6 days post-elicitation; for % Inhibition LPR: 1 day post-elicitation
# Experimental: Intravenous injection of an anti-2,4-dinitrophenol (DNP) antibody (anti-DNP Ab, monoclonal IgE Ab; its antibody titer was 1 : 512 to 1 : 1024 by a rat heterologous passive cutaneous anaphylaxis reaction using a Wister rat) into a tail vein of female Balb/c mice (7-week old, body weight: 17 to 20 g, purchased from JAPAN SLC, Inc.) at a dose of […] per animal raised passive sensitization. Twenty four hours post-sensitization, 0.1% 2,4-dinitrofluorobenzene (DNFB; Nacalai Tesque, Inc.) in ethanol was painted onto both sides of a pair of mouse auricles at a dose of 10 µL per each side for elicitation.
# Fresh unsensitized mice were painted with 0.1% DNFB in ethanol onto their ear in the same manner as aforementioned and served as a control group. Not only immediately prior to elicitation but also 1 hour, 5 hours, daily between Days 1 and 14, and on Day 16 post-elicitation, ear thickness was measured using a dial thickness gauge (Peacock Co.). Each degree of auricle edemas was calculated: Auricular Edema (µm)=(Ear Thickness Post-Elicitation, µm) - (Ear Thickness immediately prior to Elicitation, µm) [formula]
# Balb/c mice were passively sensitized with anti-DNP IgE Ab in the same manner as in Example 1. Twenty four hours later, 0.1% DNFB in ethanol was painted onto both sides of a pair of mouse auricles at a dose of 10 µL per each side for elicitation.
# Immediately prior to elicitation, 1 hour and on Day 1 post-elicitation, auricle thickness was measured in the same manner as in Example 1. Each therapeutic efficacy is recorded as a percent inhibition wherein the "auricle edema (untreated group)" is used as a control. Auricle Edema Inhibition (%) = [ 1 -(Auricle Edema (Treated Group))/(Auricle Edema (Untreated Group))] × 100 (%) [formula]
# (§1) Mice were sensitized with anti-DNP IgE Ab and then elicited by painting 0.1% DNFB in ethanol onto both sides of a pair of mouse auricles at a dose of 10 µL per each side 24 hours post-sensitization in the same manner as in Example 1. […] Immediately prior to elicitation, and on Day 7 post-elicitation, auricle thickness was similarly measured. Each therapeutic efficacy is recorded as a percent inhibition wherein the auricle edema in the untreated group is used as a control.
# as §1, with “(untreated group)” for “in the untreated group”
# Mice were sensitized with anti-DNP IgE Ab and then elicited by painting 0.1% DNFB in ethanol onto both sides of a pair of mouse auricles at a dose of 10 µL per each side 24 hours post-sensitization in the same manner as in Example 1. […] Immediately prior to elicitation, at 1 and 4 hours and on Days 1, 3 and 7 post-elicitation, auricle thickness was similarly measured. From each auricle edema (µm) based on the auricle thickness immediately prior to elicitation, especially a prophylactically therapeutic efficacy of the test compound was evaluated.
# Mice were sensitized with anti-DNP IgE Ab and then elicited by painting 0.1% DNFB in ethanol onto both sides of a pair of mouse auricles at a dose of 10 µL per each side 24 hours post-sensitization in the same manner as in Example 1. A solution of a test metalloproteinase inhibitor (Compound No. 8; 50 µg/ear/dose, twice a day) in ethanol was painted onto both sides of a pair of the mouse auricles 1 hour pre-elicitation, 0.25, 3, 4, 5 and 6 days post-elicitation (5 animals per group). Immediately prior to elicitation, at 0.5, 1 and 4 hours and on Days 1, 3 and 7 post-elicitation, auricle thickness was similarly measured. Each amount of auricle edemas was calculated (average± standard deviation). […]
# Allergic Peritonitis = experiment: Allergic peritonitis induced by ovalbumin; assay type: in vivo, male Balb/c mice; details: for inhibition of infiltration of lymphocytes/macrophages into the peritoneal cavity: ovalbumin challenge
# Experimental: In the same manner as in Example 23, mice were actively sensitized with ovalbumin and Alum, and, on Day 14 after the initial sensitization, elicited with an inducing antigen solution. A test metalloproteinase inhibitor compound (Compound No. 20: 30 mg/kg) or a negative control solvent, physiological saline (10 mL/kg), was administered subcutaneously to each animal 6, 3 hours, and 5 minutes pre-induction, 3, and 6 hours post-induction. At 24 hours post-induction, a physiological saline (containing heparin) was injected intraperitoneally at 4 mL/mouse for peritoneal lavage. An aliquot of the retrieved washout medium was taken, and not only measured for a PEC density but also stained for PEC followed by fractional counting. Each effect of the compound on the total PEC number (PEC density× 4 mL), and eosinophils and lymphocytes/macrophages is shown in Table 15. Almost similarly to Examples 22 to 24, the total PEC number and the numbers of eosinophils and lymphocytes/macrophages in the peritoneal cavity are reduced.
# Each efficacy on intraperitoneal exudation of neutrophils was examined according to the methods as disclosed in Ouchi et al., "Seibutsu Yakukagaku Jikken Koza, Ensho To Allergy (Inflammation and Allergy) I-3", pp.139 to 151, Hirokawa Publishing Co., Japan and Spicer et al., The International Archives of Allergy and Applied Immunology, 81: 81 to 84, 1986.
# In the same manner as in Example 23, male Balb/c mice were sensitized with ovalbumin and an aluminum hydroxide gel, and, on Day 14 after the initial sensitization, elicited with an antigen solution to raise allergic peritonitis. Each test metalloproteinase inhibitor (Compound No. 20 or 21: 30 mg/kg) or a negative control solvent, physiological saline (10 mL/kg), was administered subcutaneously to each animal 1 hour prior to induction, and 3 hours post-induction. At 6 hours post-induction, peritoneal lavage was done similarly to Example 22, measured for a PEC density, and counted for the total PEC number. In the same manner as in Example 22, PEC was stained, and subjected to fractional counting under a microscope with classification into neutrophils, eosinophils, lymphocytes/macrophages and basophils based on their form and stain nature. Each cell ratio was as follows: 2.3% (neutrophil), 1.1% (eosinophil), 95.4% (lymphocyte/macrophage), and 1.2% (basophil) for unsensitized/physiological saline-administered mice; and 5.7% (neutrophil), 11.9% (eosinophil), 81.3% (lymphocyte/macrophage), and 1.1% (basophil) for sensitized/physiological saline-administered mice. By a similar line of reasoning in Example 22, basophils were excluded from subjects to be examined. In the same manner as in Example 22, intraperitoneal exudation inhibition rates were calculated and expressed as the therapeutic efficacies.
# [2] = 30 mg/kg s.c. 6, 3 hours and 5 minutes pre-induction, 3 and 6 hours post-induction, 24 hours post-induction (Example 25)
# [3] = 30 mg/kg s.c. 1 hour prior to and 3 hours post-induction, 6 hours post-induction (Example 26)
compound,measurement,setting,value
"CNC(=O)[C@H](Cc1ccc(NC(=N)N)cc1)NC(=O)[C@H](CC(C)C)C(CCCc1ccccc1)C(=O)NO.Cl (single isomer, unassigned) [Compound No. 20, N-[4-(N-hydroxyamino)-2(R)-isobutyl-3(R or S)-(3-phenyltrimethylene)succinyl]-L-4'-guanidophenylalanine-N-methylamide 1 hydrochloride]",% Inhibition vLPR,[1],31%
same,% Inhibition IPR,[1],56%
same,% Inhibition LPR,[1],58%
same,Leukocyte exudate inhibition rate (%) (Macrophages)/(Lymphocytes),Allergic Peritonitis; [2],55.1%
same,Leukocyte exudate inhibition rate (%) Eosinophils,Allergic Peritonitis; [2],38.9%
same,Leukocyte exudate inhibition rate (%) Total PEC Number,Allergic Peritonitis; [2],49.6%
same,Leukocyte exudate inhibition rate (%) Eosinophils,Allergic Peritonitis; [3],38.4%
same,Leukocyte exudate inhibition rate (%) Neutrophils,Allergic Peritonitis; [3],41.4%
same,Leukocyte exudate inhibition rate (%) Total PEC Number,Allergic Peritonitis; [3],40.9%
"CNC(=O)[C@H](Cc1ccc(NC(=N)N)cc1)NC(=O)[C@H](CC(C)C)C(CCCc1ccccc1)C(=O)NO (single isomer, unassigned) [Compound No. 8, N-[4-(N-hydroxyamino)-2(R)-isobutyl-3(R or S)-(3-phenyltrimethylene)succinyl]-L-4'-guanidophenylalanine-N-methylamide 1 acetate]","inhibitory efficacy on IgE-mediated auricle edema in IPR, LPR and vLPR (FIG. 6)","[1]; 60 mg/kg s.c. only 24 and 2 hours prior to elicitation, compared with prednisolone 10 mg/kg i.p.",edema-inhibitory activity equivalent to that of prednisolone in IPR and slightly and markedly higher than that of prednisolone in LPR and vLPR
same,"inhibitory efficacy on IgE-mediated auricle edema in IPR, LPR and vLPR (FIG. 7)","[1]; painted on auricles, 50 µg/ear/dose in ethanol, 1 hour pre-elicitation and 0.25, 3, 4, 5, 6 days post-elicitation","endowed with an inhibitory activity on edemas in any of IPR, LPR, and vLPR"
same,inhibition of infiltration of lymphocytes/macrophages into the peritoneal cavity,Allergic Peritonitis; 30 mg/kg i.p. 5 minutes prior to and 3 and 6 hours post-induction (Example 23),74.9%
same,inhibition of infiltration of lymphocytes/macrophages into the peritoneal cavity,"Allergic Peritonitis; 30 mg/kg s.c. 6 hours and 5 minutes prior to induction, 24 hours after induction (Example 24)",91.2%
"CNC(=O)[C@H](Cc1ccc(N=C(N)N)cc1)NC(=O)[C@@H](CC(=O)NO)CC(C)C.O=S(=O)(O)O [Compound No. 21, N-[4-(N-hydroxyamino)-2(R)-isobutylsuccinyl]-L-4'-guanidophenylalanine-N-methylamide 1 sulfate]",% Inhibition vLPR,[1],35%
same,% Inhibition IPR,[1],31%
same,% Inhibition LPR,[1],22%
same,Leukocyte exudate inhibition rate (%) Neutrophils,Allergic Peritonitis; [3],27.1%
same,Leukocyte exudate inhibition rate (%) Total PEC Number,Allergic Peritonitis; [3],38.6%
